# Assay results from US8722616B2, “Anti-HIV peptides and methods of use thereof” (priority 2009, dated 2014).
# pEC50: −log10 of the molar value. Non-standard residues stand in square brackets, D forms with d. Residues, ends and D or L forms follow the SMILES beside them. No end group written: not given here. Phg = N[C@H](C(=O)O)c1ccccc1
# Experiments:
# HIV-1IIIB = assay: microbe, parasite or virus in culture
# Experimental: (§1) Anti-HIV cytopathic effect inhibition assays were conducted as described (Buckheit et al. (1995) Antimicrob. Agents Chemother., 39:2718-2727). In brief, serially diluted peptides were added to a 96-well round bottom microtiter plate in triplicate. CEM-SS cells at a concentration of 2.5×10^3 cells per well and HIV-1IIIB at the appropriate pre-determined titer were sequentially added to the microtiter plate. The cultures were incubated at 5% CO2/37° C. for six days. Following the incubation, the microtiter plates were stained with XTT tetrazolium dye to evaluate the efficacy and toxicity of the test compound(s).
# as §1, with “Cytopathic Effect (CPE) Inhibition Assay: The CPE assay was performed” for “Anti-HIV cytopathic effect inhibition assays were conducted”, “as previously” for “as”, “Briefly,” for “In brief,”, “compound was” for “peptides were”
# [1] = Cytotoxicity in the CPE assay (XTT, 50% reduction in cell viability); conditions: human
# Experimental: as §1
# as §1, with “Cytopathic Effect (CPE) Inhibition Assay: The CPE assay was performed” for “Anti-HIV cytopathic effect inhibition assays were conducted”, “as previously” for “as”, “Briefly,” for “In brief,”, “compound was” for “peptides were”
# CEM-SS cells = assay: as above
# Experimental: as §1
# as §1, with “Cytopathic Effect (CPE) Inhibition Assay: The CPE assay was performed” for “Anti-HIV cytopathic effect inhibition assays were conducted”, “as previously” for “as”, “Briefly,” for “In brief,”, “compound was” for “peptides were”
# [2] = Table 4, LL-37-derived peptides, CEM-SS cells
# [3] = Table 1, CEM-SS cells, HIV-1IIIB, six days, 50% inhibition of virus replication
# [4] = read-out: TC50, Table 1, CEM-SS cells, six days, 50% reduction in cell viability
# [5] = Table 2, sequence shuffling, CEM-S cells
# [6] = read-out: TC50, Table 2, CEM-S cells
# [7] = read-out: TC50, Table 3, CEM-SS cells
compound,measurement,setting,value
"CC[C@H](C)[C@H](NC(=O)[C@H](CCCCN)NC(=O)[C@H](CCCCN)NC(=O)[C@H](Cc1ccccc1)NC(=O)[C@H](CC(C)C)NC(=O)[C@H](CCCCN)NC(=O)[C@H](CCCCN)NC(=O)[C@@H](NC(=O)[C@H](CCCCN)NC(=O)[C@H](CCCCN)NC(=O)[C@H](CCCNC(=N)N)NC(=O)[C@@H](NC(=O)[C@H](CCCNC(=N)N)NC(=O)[C@H](CCCCN)NC(=O)[C@H](Cc1ccccc1)NC(=O)[C@H](CCCNC(=N)N)NC(=O)CN)c1ccccc1)c1ccccc1)C(=O)N[C@@H](CO)C(N)=O [BMAP-18X6X10, GRFKRXRKKXKKLFKKIS] (H-GRFKR[Phg]RKK[Phg]KKLFKKIS-NH2)",pEC50,"HIV-1IIIB; Table 5, BMAP-27-derived peptides, CEM-SS cells",6.17
same,CC50 at 6 days,[1]; CEM-SS cells,10.2 µM
CC[C@@H](C)[C@@H](NC(=O)[C@H](CCCNC(=N)N)NC(=O)[C@H](CCC(N)=O)NC(=O)[C@@H](NC(=O)[C@@H](NC(=O)[C@H](CCCNC(=N)N)NC(=O)[C@H](CCCCN)NC(=O)[C@H](Cc1ccccc1)NC(=O)CN)[C@@H](C)CC)C(C)C)C(=O)N[C@@H](CCCCN)C(=O)N[C@@H](CC(=O)O)C(=O)N[C@@H](Cc1ccccc1)C(=O)N[C@@H](CC(C)C)C(=O)N[C@@H](CCCNC(=N)N)C(=O)N[C@@H](CC(N)=O)C(=O)N[C@@H](CC(C)C)C(=O)N[C@H](C(N)=O)C(C)C [GF-17d1],pEC50,HIV-1IIIB; [2],< 4.32
same,CC50 at 6 days,[1]; CEM-SS cells,22.7 µM
CC[C@@H](C)[C@@H](NC(=O)[C@H](CCCNC(=N)N)NC(=O)[C@H](CCC(N)=O)NC(=O)[C@@H](NC(=O)[C@@H](NC(=O)[C@H](CCCNC(=N)N)NC(=O)[C@H](CCCCN)NC(=O)[C@H](Cc1ccccc1)NC(=O)CN)[C@@H](C)CC)C(C)C)C(=O)N[C@@H](CCCCN)C(=O)N[C@@H](CC(=O)O)C(=O)N[C@@H](Cc1ccccc1)C(=O)N[C@H](CC(C)C)C(=O)N[C@@H](CCCNC(=N)N)C(=O)N[C@@H](CC(N)=O)C(=O)N[C@@H](CC(C)C)C(=O)N[C@H](C(N)=O)C(C)C [GF-17d2],pEC50,HIV-1IIIB; [2],< 4.32
same,CC50 at 6 days,[1]; CEM-SS cells,> 47.5 µM
"CC[C@H](C)[C@H](NC(=O)CN)C(=O)N[C@@H](CCCCN)C(=O)N[C@@H](CCC(=O)O)C(=O)N[C@H](C(=O)N[C@@H](CCCCN)C(=O)N[C@@H](CCCNC(=N)N)C(=O)N[C@H](C(=O)N[C@H](C(=O)N[C@@H](CCC(N)=O)C(=O)N[C@@H](CCCNC(=N)N)C(=O)N[C@H](C(=O)N[C@@H](CCCCN)C(=O)N[C@@H](CC(=O)O)C(=O)N[C@@H](Cc1ccccc1)C(=O)N[C@@H](CC(C)C)C(=O)N[C@@H](CCCNC(=N)N)C(=O)N[C@@H](CC(N)=O)C(=O)N[C@@H](CC(C)C)C(=O)N[C@H](C(N)=O)C(C)C)[C@@H](C)CC)C(C)C)[C@@H](C)CC)c1ccccc1 [GI-20X17, GIKEXKRIVQRIKDFLRNLV] (H-GIKE[Phg]KRIVQRIKDFLRNLV-NH2)",pEC50,HIV-1IIIB; [2],< 4.39
same,CC50 at 6 days,[1]; CEM-SS cells,7.3 µM
FFGKVLKLIRKIF-NH2 [Peptide D76],pEC50,HIV-1IIIB; [3],6.20
same,CC50 at 6 days,[1],6.78 µM
"FFHHIFRGIVHVGKTIHRLVTG [Piscidin 1, reference compound]",CC50,CEM-SS cells; [4],6.9 µM
FKRIVQRIKDFLR-NH2 [FK-13],EC50,HIV-1IIIB; >100 μg/ml defined as HIV inactive,5.9 µg/mL
same,pEC50,HIV-1IIIB; [2],5.47
same,CC50 at 6 days,[1],10.4 µM
"FLFPLITSFLSKVL [Ranatuerin 9, reference compound]",pEC50,HIV-1IIIB; 1IIIB,4.78
same,CC50,[1],34.6 µM
"FRPALIVRTKGTRL [Hyposin-5, reference compound]",pEC50,HIV-1IIIB; 1IIIB,< 4.21
same,CC50,[1],> 61.4 µM
"GAWKNFWSSLRKGFYDGEAGRAIRR [Peptide D94, reference compound]",pEC50,HIV-1IIIB; [3],< 4.47
same,CC50,CEM-SS cells; [4],> 34.1 µM
"GFGKAFHSVSNFAKKHKTA-NH2 [Styelin A, reference compound] [listing 1 of 2 here]",pEC50,HIV-1IIIB; [3],< 4.31
"GFGKAFHSVSNFAKKHKTA-NH2 [Styelin A, reference compound] [listing 2 of 2 here]",CC50,CEM-SS cells; [4],> 48.5 µM
GFLDIIEKIAKSW [Peptide B7],pEC50,HIV-1IIIB; [5],4.98
same,CC50,CEM-SS cells; [6],> 65.8 µM
"GFLSILKKVLPKVMAHMK-NH2 [Melectin, reference compound]",CC50,CEM-SS cells; [4],7.75 µM
GFNEIVQDIEDFLQNLV-NH2 [GF17-],pEC50,HIV-1IIIB; 1IIIB,< 4.60
same,CC50,[1],> 25.1 µM
GIFDKLAKEISIW [Peptide B5],pEC50,HIV-1IIIB; [5],< 4.18
same,CC50,CEM-SS cells; [6],> 65.8 µM
GIIDIAKKLFESW [Peptide B3],pEC50,HIV-1IIIB; 1IIIB,4.70
same,CC50,CEM-SS cells,> 65.8 µM
GIKEFKREFQRIKDFLRNLV-NH2 [GI-20EF],pEC50,HIV-1IIIB; [2],5.80
same,CC50 at 6 days,[1],9.9 µM
GIKEFKRIVQRIKDFLRNLV-NH2 [GI-20],pEC50,HIV-1IIIB; [2],5.97
same,CC50 at 6 days,[1],22.7 µM
GIKEWKRIVQRIKDFLRNLV-NH2 [GI-20W17],pEC50,HIV-1IIIB; [2],5.13
same,CC50 at 6 days,[1],23.6 µM
GIKQFKRIVQRIKDFLRNLV-NH2 [GI-20Q16],pEC50,HIV-1IIIB; [2],6.04
same,CC50 at 6 days,[1],13.7 µM
"GIWDTIKSMGKVFAGKILQNL-NH2 [Brevinin-2-related, reference compound]",CC50,CEM-SS cells,7.42 µM
GIWSDLAEIIKKF [Peptide B6],CC50,CEM-SS cells; [6],> 65.8 µM
"GKPRPYSPRPTSHPRPIRV [Drosocin, reference compound]",pEC50,HIV-1IIIB; [3],< 4.34
same,CC50,CEM-SS cells; [4],> 45.5 µM
GLFDIIKKIAESW [Peptide B1],pEC50,HIV-1IIIB; [5],4.93
same,CC50,CEM-SS cells; [6],37 µM
"GLNTLKKVFQGLHEAIKLINNHVQ [Psuedin 1, reference compound] [listing 1 of 2 here]",pEC50,HIV-1IIIB; [3],4.45
"GLNTLKKVFQGLHEAIKLINNHVQ [Psuedin 1, reference compound] [listing 2 of 2 here]",CC50,CEM-SS cells; [4],> 36.8 µM
GLRRLLGRLLRRLGRLLLR [GLR-19],pEC50,"HIV-1IIIB; Table 3, CEM-SS cells",5.36
same,CC50,CEM-SS cells; [7],25.7 µM
"GLRSKIWLWVLLMIWQESNKFKKM [DRS S9, reference compound]",pEC50,"HIV-1IIIB; Table 3, CEM-SS cells",4.50
same,CC50,CEM-SS cells; [7],> 32.9 µM
GLRSRIWLWVLLMIWQESNRFKRM [DRS S9r3],pEC50,"HIV-1IIIB; Table 3, CEM-SS cells",5.90
same,CC50,CEM-SS cells; [7],> 32.1 µM
GLWEKIDKFASII [Peptide B2],pEC50,HIV-1IIIB; [5],< 4.18
same,CC50,CEM-SS cells; [6],> 65.8 µM
